Experiments:
human 5-HT3 receptor = human 5-HT3 receptor (Homo sapiens (Human), UniProt P46098); assay: Radioligand binding assay (SPA format), affinity for the human 5-HT3 receptor; details: [9-methyl-3H]BRL-43694 10 nM, human 5-HT3 receptor membranes, Cheng Prusoff; read-out: h5-HT3A Ki
Experimental: The relative affinity of the various compounds for the human 5-HT3 receptor was measured in a radioligand binding assay, using a scintillation proximity assay (SPA) format. Test compounds were dissolved to 10 mM in 100% DMSO, then serially diluted at 10× assay concentrations in 100% DMSO in 96-well polypropylene plates and further diluted to 4× assay concentrations with the assay buffer. Samples were incubated in 50 mM Tris-HCl, pH 7.5, 3 mM MgCl2, 1 mM EDTA and 10% DMSO with 10 nM [9-methyl-^3H]BRL-43694 (Perkin Elmer), 3 μg of human 5-HT3 receptor membranes (Perkin Elmer) and 0.5 mg/mL SPA beads (WGA PVT, Amersham Biosciences) in a final volume of 0.2 mL. Binding reactions were set up in wells of PicoPlates-96 (Perkin Elmer) by adding consecutively 50 μL of each competing compound or buffer, SPA beads, the radioligand and 5-HT3 receptor membranes. After an overnight incubation at room temperature on a Nutator mixer, plates were centrifuged for 15 min at 1,500 rpm, followed by incubation in the dark for 30 min. Radioactivity was counted in the TopCount microplate counter (Perkin Elmer) for 5 min. Total binding control contained compound dilution buffer only; nonspecific binding was determined in the presence of 30 μM MDL-72222. Specific binding was determined by subtracting nonspecific binding from total binding. All experiments were performed in duplicate using ten concentrations of competing ligand, with ondansetron included as a control in every run. IC50 values were determined from specific binding data using XLfit4.1 curve fitting software from IDBS Ltd. The inhibition constant (Ki) was calculated from the Cheng Prusoff equation: (Ki=IC50/(1+(L/KD)), where L=concentration of radioligand in the assay, and KD=affinity of the radioligand for the receptor.

h5-HT3A receptor = h5-HT3A receptor (Homo sapiens (Human), UniProt P46098); assay: Agonist activity at recombinant human 5-HT3A receptors, [Ca2+]i in HEK293 cells; type: cell-based; details: at 1 μM, normalized to the response of 5-HT (5-HT response = 100% at 3 μM); NR = no response
Chain of h5-HT3A receptor (P46098 24-478): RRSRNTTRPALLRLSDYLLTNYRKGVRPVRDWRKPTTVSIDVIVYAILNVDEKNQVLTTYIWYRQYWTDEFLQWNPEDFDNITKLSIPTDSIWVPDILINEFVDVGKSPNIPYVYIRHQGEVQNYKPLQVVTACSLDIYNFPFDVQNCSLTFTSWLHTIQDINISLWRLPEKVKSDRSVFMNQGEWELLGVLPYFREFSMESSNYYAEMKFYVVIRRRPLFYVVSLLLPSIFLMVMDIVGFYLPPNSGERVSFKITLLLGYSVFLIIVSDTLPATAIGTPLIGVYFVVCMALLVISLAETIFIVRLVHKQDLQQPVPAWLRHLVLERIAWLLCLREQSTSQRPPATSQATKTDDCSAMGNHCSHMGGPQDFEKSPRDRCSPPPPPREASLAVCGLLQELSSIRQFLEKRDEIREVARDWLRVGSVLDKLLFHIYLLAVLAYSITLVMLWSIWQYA
Experimental: Human embryonic kidney (HEK293) cells expressing the h5-HT3A receptor subunit were seeded directly into poly-D-lysine coated, black-walled, clear bottomed, 96 well plates with approximately 1×10^5 cells per well. After 48 hrs incubation in DMEM growth media (100 μL), cells were washed twice (each 200 μL) in Hank's balanced salt solution (Invitrogen) before incubation (1 hr) with Fluo-4 acetoxymethyl (AM) ester (100 μL, 2.5 μM; Molecular Probes). Cells were washed twice (each 200 μL) in Hank's balanced salt solution and incubated for a further 30 min in Hank's balanced salt solution (100 μL) prior to assay (25° C.). Alteration in [Ca^2+]i was measured (relative fluorescence units [RFU]) using a Flexstation (excitation 488 nm and emission 515 nm; frequency of recording 3 sec). After recording for at least 80 sec, vehicle (Hank's balanced salt solution) or drug was automatically administered to the well (50 μL). Baseline was calculated from the 5 data points immediately prior to the first drug administration and the maximum response was that achieved over the 240 sec following drug administration. In all experiments the muscarinic receptor agonist carbachol (1 mM) was added 240 sec after the test drug administration.

5-HT3 receptors = 5-HT3 receptors (Mus musculus (Mouse), UniProt P23979); assay: von Bezold-Jarisch model in vivo: inhibition of 5-HT induced bradycardia; details: 3 mg/kg oral, 60 min before 5-HT 0.1 mg/kg IV, anesthetized male ICR mice; highest oral dose tested
Chain of 5-HT3 receptors (P23979 24-489): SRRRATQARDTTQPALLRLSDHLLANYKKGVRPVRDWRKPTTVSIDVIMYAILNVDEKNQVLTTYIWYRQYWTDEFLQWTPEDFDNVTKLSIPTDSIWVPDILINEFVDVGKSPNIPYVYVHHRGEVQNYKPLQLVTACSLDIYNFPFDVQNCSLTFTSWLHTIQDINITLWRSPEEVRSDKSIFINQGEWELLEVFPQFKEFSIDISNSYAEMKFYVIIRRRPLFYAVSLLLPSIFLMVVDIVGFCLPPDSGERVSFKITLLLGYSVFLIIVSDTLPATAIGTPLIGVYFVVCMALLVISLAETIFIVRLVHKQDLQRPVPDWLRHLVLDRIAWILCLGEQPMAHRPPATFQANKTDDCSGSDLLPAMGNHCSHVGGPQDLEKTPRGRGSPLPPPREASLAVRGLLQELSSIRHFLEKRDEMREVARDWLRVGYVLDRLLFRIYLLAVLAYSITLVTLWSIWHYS
Experimental: This is a well characterized and widely used model to assess 5-HT3 receptor function in vivo (King et al., 5-Hydroxtryptamine-3 Receptor Antagonists, CRC Press, pp. 74-75 (1993), which is hereby incorporated by reference in its entirety). Certain compounds (Table 1) were evaluated for their ability to inhibit serotonin induced bradycardia in vivo in the mouse (Saxena et al., Arch. Int. Pharmacodyn., 277:235-252 (1985), which is hereby incorporated by reference in its entirety). Test substances and vehicle [2% Tween 80] were each administered orally to a group of 5 male ICR mice each weighing 24±2 g. A dosing volume of 10 mL/kg was used. Sixty minutes later, 5-HT (0.1 mg/kg IV)-induced bradycardia was recorded in urethane (2250 mg/kg IP, given 10 minutes before 5-HT)-anesthetized animals.

Chain of human 5-HT3 receptor (P46098 24-478): as the sequence (P46098 24-478) above

| Structure (SMILES) | Ki (human 5-HT3 receptor) [nM] | HEK293 h5-HT3A % agonist response (h5-HT3A receptor) [%] | Inhibition of 5-HT Induced Bradycardia in Mice (5-HT3 receptors) [% @ 3 mg/kg] |
| --- | --- | --- | --- |
| O=C1c2cccc3[nH]nc(c23)CN1CC12CCN(CC1)CC2 [Example 29, 4-(quinuclidin-4-ylmethyl)-3,4-dihydropyrazolo[3,4,5-de]isoquinolin-5(1H)-one] | 2 | 1 | 87 |
| O=C1c2cccc3cnn(c23)CCN1[C@@H]1CN2CCC1CC2 [Example 7, (S)-7-(quinuclidin-3-yl)-8,9-dihydro-[1,4]diazepino[6,7,1-hi]indazol-6(7H)-one] | 8 | 19 | 77 |

Reference: patent US9045501B2, “5-HT3 receptor modulators, methods of making, and use thereof” (Albany Molecular Research, Inc., priority 2009, dated 2015)
